Assay results: the supplement of paper PMC5412046
Counter-ions that a name gives are not always drawn.

Experiments:
SB.mhdgc-1 [1] = experiment: viability at highest tested concentration (MAXR) relative to DMSO; higher = less cytotoxic; details: SB.mhdgc-1 (hereditary c.1380delA CDH1 gastric cancer)
Summary of the method: (§1)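 Compound in DMSO was pinned (23 nL) at 11 threefold-diluted concentrations into wells containing 500 patient-derived gastric cancer cells, hereditary or sporadic, in 5 μL medium per 1536 well. Cells were incubated for 48 h, then exposed to CellTiter-Glo for 30 min at room temperature. Luminescence was measured on a ViewLux. The values are viability normalised to DMSO, either at the highest concentration or as trapezoidal area under the curve.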

SB.msgc-1 [2] = experiment: as above; details: SB.msgc-1 (sporadic gastric cancer)
Summary of the method: as §1

SB.mhdgc-1 [3] = experiment: area under the dose-response curve of % viability (trapezoidal, 11 doses) (% viability x log10 concentration); higher = less cytotoxic; details: SB.mhdgc-1 (hereditary c.1380delA CDH1 gastric cancer)
Summary of the method: as §1

SB.msgc-1 [4] = experiment: as above; details: SB.msgc-1 (sporadic gastric cancer)
Summary of the method: as §1

| SMILES | viability (SB.mhdgc-1 [1]) [%] | viability (SB.msgc-1 [2]) [%] | area under the dose-response curve (SB.mhdgc-1 [3]) | area under the dose-response curve (SB.msgc-1 [4]) |
| --- | --- | --- | --- | --- |
| CC/1=C/C(=O)N(O)/C(=C1)C2CCCCC2 [ciclopirox] (top concentration 46.0829 µM) | 7.01 | 48.1 | 395 | 493 |
| NC(=O)N1c2ccccc2CC(=O)c2ccccc21 [Oxcarbazepine] (top concentration 46.0829 µM) | 119 | 112 | 548 | 525 |
| CN\1C(=O)/C(=C(\N=C1N2CCCC[S+]2([O-])=O)C(=O)NCC3=CC=C(F)C=C3)O (top concentration 46.0829 µM) | 130 | 99.9 | 620 | 544 |
| CC[C@H](NC(=O)[C@H](C)NC)C(=O)N1C[C@@H](O)C[C@H]1Cc1c(-c2[nH]c3cc(F)ccc3c2C[C@@H]2C[C@H](O)CN2C(=O)[C@H](CC)NC(=O)[C@H](C)NC)[nH]c2cc(F)ccc12 [Birinapant] (top concentration 46.0829 µM) | 25.4 | 32.2 | 315 | 399 |
| O=C(NCC1CCOCC1)c1cnc(Nc2ccc(Cl)cc2Cl)nc1C(F)(F)F (top concentration 46.0829 µM) | 7.1 | 6.36 | 519 | 539 |
| CCN1\C=C(\C(O)=O)C(=O)C2=CC=C(C)N=C12 [Nalidixic acid] (top concentration 46.0829 µM) | 76.8 | 95.8 | 437 | 443 |
| C[C@H](NC(=O)Cc1cc(F)cc(F)c1)C(=O)N[C@H](C(=O)OC(C)(C)C)c1ccccc1 [GSI-9] (top concentration 46.0829 µM) | 88.9 | 77.2 | 501 | 483 |
| COc1nc(N)nc2c1ncn2[C@@H]1O[C@H](CO)[C@@H](O)[C@@H]1O [Nelarabine] (top concentration 46.0829 µM) | 75 | 120 | 504 | 585 |
| CC(C)OC1=CC=C2C(=C1)O\C=C(/C2=O)C3=CC=CC=C3 [Ipriflavone] (top concentration 46.0829 µM) | 60.8 | 54 | 487 | 487 |
| CC(C)(Sc1cc(C(C)(C)C)c(O)c(C(C)(C)C)c1)Sc1cc(C(C)(C)C)c(O)c(C(C)(C)C)c1 [Probucol] (top concentration 46.0829 µM) | 84.4 | 30.7 | 443 | 262 |
| C[C@@H](N)c1ccc(C(=O)Nc2ccnc3[nH]ccc23)cc1 (top concentration 46.0829 µM) | 12.7 | 39.3 | 402 | 474 |
| OC1=CC=C(C=C1)\C2=C\C(=O)C3=C(O2)C=C(O)C=C3O [Apigenin] (top concentration 46.0829 µM) | 20.6 | 41.1 | 504 | 499 |
| CO[C@H]1/C=C/O[C@@]2(C)Oc3c(C)c(O)c4c(c3C2=O)C2=NC3(CCN(CC(C)C)CC3)NC2=C(NC(=O)/C(C)=C\C=C\[C@H](C)[C@H](O)[C@@H](C)[C@@H](O)[C@@H](C)[C@H](OC(C)=O)[C@@H]1C)C4=O [Rifabutin] (top concentration 46.0829 µM) | 61.8 | 67.5 | 494 | 534 |
| CN(C)CCN1C(=O)c2cccc3cc(N)cc(c23)C1=O [Amonafide] (top concentration 46.0829 µM) | 66.7 | 51.9 | 452 | 487 |
| OCCC#Cc1nc(-c2ccc(F)cc2)c(-c2ccncc2)n1CCCc1ccccc1 (top concentration 46.0829 µM) | 38.9 | 51.1 | 501 | 457 |
| COc1ccc(-c2ccc3ncc4c(c3c2)n(-c2ccc(N3CCNCC3)c(C(F)(F)F)c2)c(=O)n4C)cn1 [NVP-BGT226] (top concentration 46.0829 µM) | 1.45 | 0.962 | 195 | 305 |
| CCN1CCC(n2cc(CNc3cc(Cl)c4ncc(C#N)c(Nc5ccc(F)c(Cl)c5)c4c3)nn2)CC1 [Wyeth Cot inhibitor-2] (top concentration 46.0829 µM) | 1.55 | 29.5 | 389 | 476 |
| N#Cc1c(N(CC(=O)[O-])CC(=O)[O-])sc(C(=O)[O-])c1CC(=O)[O-].O.O.O.O.O.O.O.[Sr+2].[Sr+2] [Ranelic acid distrontium salt] (top concentration 46.0829 µM) | 92.2 | 94.8 | 565 | 504 |
| O=C1Cc2cc(CCN3CCN(c4nsc5ccccc45)CC3)c(Cl)cc2N1 [Ziprasidone hydrochloride] (top concentration 46.0829 µM) | 5.5 | 15.5 | 409 | 508 |
| CCCCCN(CCC12CC3CC(CC(C3)C1)C2)C(=O)NCCCc1ccncc1 [DE-096] (top concentration 46.0829 µM) | 2.93 | 23.2 | 536 | 476 |
| O=C1C(CCC(O)c2ccc(F)cc2)C(c2ccc(O)cc2)N1c1ccc(F)cc1 (centres undefined) [Ezetimibe] (top concentration 46.0829 µM) | 103 | 94.6 | 534 | 534 |
